The results in this text go back to publication PMC7269481, “ZN148 Is a Modular Synthetic Metallo-β-Lactamase Inhibitor That Reverses Carbapenem Resistance in Gram-Negative Pathogens In Vivo” (Antimicrobial Agents and Chemotherapy, 2020).

Molecules are shown by their SMILES. Converted amounts (≈) assume the structure as drawn. Where two headings read alike, the source gives them in different places.

The target in data set [1] is T1, VIM-2 (Escherichia coli, UniProt Q5U7L7).
T1 construct: made in house
It is filed as biochemical. How it is done: For reversibility of enzyme activity after incubation with ZN148, 3 ml of VIM-2 or NDM-1 was diluted with or without ZN148 in Chelex HEPES buffer (pH 7.5) and subsequently incubated for 1 h on ice. Then, 2.5 ml of each solution was loaded onto an equilibrated PD-10 column (GE Healthcare, Pittsburgh, PA), washed with 1 ml, and eluted with 1.5 ml of Chelex HEPES buffer (pH 7.5), respectively. Samples spiked and not spiked with inhibitor were diluted to a final enzyme concentration of 1 nM VIM-2 and 3 nM NDM-1. The initial reaction velocity was determined by adding nitrocefin (Merck) for VIM-2 or imipenem (Sigma-Aldrich) for NDM-1 at final concentrations of 50 and 100 μM, respectively. The initial enzyme reactions were recorded at 25°C. Inhibitor and enzyme alone were included as controls. All measurements were performed at least in duplicates. For enzyme restorability, pre- and postcolumn samples were supplemented with ZnSO4 (Sigma-Aldrich) to a final concentration of 100 μM and allowed to incubate for 5 min at 25°C. The initial enzyme velocity was then determined as described above.

The nature of data set [2]: Solubility measurement in PBS. It is filed as physicochemical. How it is done: The solubility of ZN148 was evaluated in PBS buffer at pH 7.4. Increasing amounts of ZN148 was dissolved in 1.0 ml at room temperature by gentle swirling of the solution in a glass vial. A total of 1.225 g of ZN148 was successfully dissolved in 1.0 ml of PBS buffer, giving a total volume of 1.8 ml. This solution was stable at 4°C for more than 6 weeks without precipitation.

Data set [3] concerns the target T2, NDM-1 (Klebsiella pneumoniae, UniProt C7C422).
T2 construct: made in house
Put plainly: Time-dependent inactivation kinetics of purified NDM-1 (imipenem). Format: biochemical. The method, then:
(§1) Protein expression and purification of NDM-1 and VIM-2 were performed as previously described ([36], [43], [57]). Stock solutions of purified NDM-1 and VIM-2 were prepared in 50 mM HEPES buffer (pH 7.5; Merck). Inhibition of NDM-1 and VIM-2 were determined for ZN148 and the analogues ZN222, ZN223, and ZN228 at different concentrations of inhibitor after preincubation times of 2, 8, 15, 25, and 32 min in 50 mM HEPES buffer (pH 7.5) supplemented with 1 μM ZnSO4 (Sigma-Aldrich) and bovine serum albumin (Sigma-Aldrich; final concentration, 2 μg/ml) at 25°C. Concentrations of 1 nM VIM-2 and 30 nM NDM-1 were used, and the reaction was initiated by the addition of 30 μM nitrocefin (Merck) for VIM-2 or 100 μM imipenem (Sigma-Aldrich) for NDM-1. The reaction was measured at 482 nm (VIM-2) or […] (NDM-1) in either standard 96-well plates (Thermo Fisher Scientific) for VIM-2 or UV-transparent 96-well plates (Corning, Kennebunk, ME) for NDM-1 at 25°C in a SpectraMax Plus plate reader (Molecular Devices). All of the enzyme and substrate concentrations indicated are the final concentrations in the assay. The enzyme activity as a percentage was calculated based on the initial velocity and compared to the control without inhibitor compound. All tests were performed at least in duplicates.
(§2) The observed rate constant (kobs) per inhibitor concentration was calculated from the slope of a semilog plot of the enzyme activity in percent versus preincubation time.
(§3) By fitting these values, the irreversible kinetic parameters maximum inactivation rate (kinact) and the inhibitor concentration that produces half-maximal rate of inactivation (KI) were obtained. Finally, the inhibitors were characterized by calculating kinact/KI. Where no saturation curve could be observed, KI and kinact were determined from the linear part of plot 1/kobs versus 1/[I].

Data set [4] addresses T1, VIM-2. Put plainly: Time-dependent inactivation kinetics of purified VIM-2 (nitrocefin). Format: biochemical. The method, then:
as §1, §2, §3

Data set [5] has as its system MBL-producing P. aeruginosa clinical strains. Put plainly: Carbapenem MIC, MBL-producing P. aeruginosa. It is filed as cell-based. Conditions: 50 μM ZN148; n = 52. How it is done:
(§4) MICs of carbapenems alone and in combination with inhibitors were determined by broth microdilution according to the Clinical and Laboratory Standards Institute (CLSI) guidelines ([48]) using either premade plates (TREK Diagnostic Systems/Thermo Fisher Scientific, East Grinstead, United Kingdom) with meropenem or in-house-prepared plates with meropenem, imipenem, and doripenem. ZN148 and other inhibitors were tested at a fixed concentration of 50 μM. Cation-adjusted Mueller-Hinton medium (TREK Diagnostic Systems/Thermo Fisher Scientific; Becton Dickinson, Franklin Lakes, NJ) were used as growth medium. The plates were incubated for 20 h at 37°C. ZN148, ZN222, ZN223, ZN228, and TPA were initially tested in combination with meropenem using two indicator strains: NDM-1-producing K. pneumoniae ([49], [50]) and VIM-2-producing P. aeruginosa ([51]). The activity of ZN148 were subsequently tested against two extended strain collections: (i) in combination with meropenem against MBL-producing Enterobacterales (n = 62), MBL-producing P. aeruginosa (n = 9) and MBL- and class D carbapenemase-coproducing Enterobacterales (n = 5) from the strain collection at the Norwegian National Advisory Unit on Detection of Antimicrobial Resistance and (ii) in combination with meropenem, imipenem, and doripenem against globally collected MBL-producing E. coli (n = 87), K. pneumoniae (n = 85), P. aeruginosa (n = 52), and A. baumannii (n = 6), MBL- and class A/D carbapenemase-coproducing E. coli (n = 11), K. pneumoniae (n = 15) and A. baumannii (n = 7) at IHMA Europe, Sàrl, Switzerland. E. coli ATCC 25922 and P. aeruginosa ATCC 27853 were used as quality control strains. The MBL inhibitors were also tested for intrinsic antibacterial activity against the strains.

The subject of data set [6] is class A carbapenemase (KPC)-producing E. coli. Put plainly: Carbapenem MIC, class A carbapenemase-producing E. coli. It is filed as cell-based. Conditions: carbapenem alone or with 50µM ZN148. The method, then:
as §4

T2 sequence (C7C422 29-270, looked up): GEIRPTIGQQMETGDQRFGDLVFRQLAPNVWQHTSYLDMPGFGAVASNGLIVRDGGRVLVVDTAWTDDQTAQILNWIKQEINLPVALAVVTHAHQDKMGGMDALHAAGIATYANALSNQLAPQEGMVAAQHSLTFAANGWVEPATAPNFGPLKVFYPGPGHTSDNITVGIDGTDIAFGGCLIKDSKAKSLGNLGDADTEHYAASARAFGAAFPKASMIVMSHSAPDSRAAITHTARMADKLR

Turning to `CN(C[C@H](O)[C@@H](O)[C@H](O)[C@H](O)CO)C(=O)c1ccc(CN(Cc2ccccn2)Cc2ccccn2)nc1` [ZN148], the mode of inhibition result in data set [1] is given as “irreversible”. In data set [1] (after incubation with inhibitor and its removal (PD-10), 100 μM ZnSO4), the “MBL activity restored by addition of exogenous zinc, compared to untreated control” value was about 30%. In data set [2] (PBS buffer, pH 7.4, aqueous buffer, thermodynamic from solid, in phosphate-buffered saline [PBS]), this compound yielded a solubility of 1220 mg/mL (≈ 2390 mM). Besides, the “stability of the solution without precipitation” value in data set [2] (at 4°C, 1.225 g in 1.0 ml PBS) was “more than 6 weeks”. Besides, the “amount dissolved in 1.0 ml of PBS buffer” value in data set [2] (pH 7.4, room temperature, total volume 1.8 ml) is recorded as 1.225 g. Besides, in data set [3], the inactivation rate constant (kinact) is 0.000983 s⁻¹ and the kinact/KI is 3.17 M⁻¹ s⁻¹. Also, in data set [4], the kinact is 0.00262 s⁻¹ and the kinact/KI was 110 M⁻¹ s⁻¹. In data set [5], the “strains with restored clinical susceptibility, in combination with doripenem” value amounted to 15%; the “strains with restored clinical susceptibility, in combination with imipenem” value was 25%; the “strains with restored clinical susceptibility, in combination with meropenem” value is listed as 17%.
Regarding `C[C@@H](O)[C@H]1C(=O)N2C(C(=O)O)=C(S[C@@H]3CN[C@H](C(=O)N(C)C)C3)[C@H](C)[C@H]12` [meropenem], the minimal inhibitory concentration (MIC) in data set [6] (Escherichia coli, KPC-2 strains, one value per strain, read-out: MIC) amounted to 8 µg/mL; in data set [6] (Escherichia coli, KPC-3 strain, read-out: MIC) it was 2 µg/mL; in data set [6] (KPC-2 strains, one value per strain, listed as MEM), 4 µg/mL.
